Assay results: patent US4755598A, “1 '-(substituted)ethyl-7β-[2-(2-aminothiazol-4-yl)acetamido]-3-[[[1-(2 -dimethylaminoethyl)-1H-tetrazol-5-yl]thio]methyl]ceph-3-em-4-carboxylate derivatives having antibacterial utility” (Takeda Chemical Industries, Ltd., priority 1983, dated 1988)
Read-outs that look alike come from different tables or passages of the source.

Tests used:
[1] = mouse, in vivo; for Plasma level of non-ester compound / AUC: po, 100 mg/kg
Protocol: The compounds of Examples 2, 4, 6, 7 and 8 and the 1-(ethoxycarbonyloxy)ethyl ester of compound [II] (briefly, compound A) are each administered orally to a mouse in a dose of 100 mg/kg in terms of non-ester compound, i.e., compound [II]. At 0.25, 0.5, 1.0 and 2.0 hours after administration, the concentration of the non-ester compound in the mouse plasma is determined by the cup assay using Proteus mirabilis Eb313 as the test organism and the area under the concentration-time curve for 0-2 hours (AUC) is calculated.
As control, the non-ester compound is administered subcutaneously to a mouse and the AUC value is similarly calculated.

[2] = test system: gram-negative bacteria such as Escherichia coli, Klebsiella pneumoniae, Proteus vulgaris, Proteus mirabilis and Proteus morganii; details: cited from earlier work
[3] = test system: gram-positive bacteria such as Staphylococcus aureus; details: cited from earlier work
[4] = test system: bacteria; details: cited from earlier work

| SMILES | Bioavailability ([1]; 120 min) [%] | Plasma level of non-ester compound ([1]; 15 min) [µg/mL] | Plasma level of non-ester compound ([1]; 30 min) [µg/mL] | Plasma level of non-ester compound ([1]; 60 min) [µg/mL] | AUC ([1]; 120 min) [µg·h/mL] | Plasma level of non-ester compound ([1]; 120 min) [µg/mL] | antibacterial activity [2] | antibacterial activity [3] | antibacterial activity [4] | Bioavailability ([1]; sc, 120 min) [%] |
| --- | --- | --- | --- | --- | --- | --- | --- | --- | --- | --- |
| CCOC(=O)OC(C)OC(=O)C1=C(CSc2nnnn2CCN(C)C)CS[C@@H]2[C@H](NC(=O)Cc3csc(N)n3)C(=O)N12 (stereo partly shown) [Compound A, 1-(ethoxycarbonyloxy)ethyl ester of compound [II], reference compound] | 23.9 | 14.7 | 9.2 | 2.4 | 9.28 | 0.7 |  |  |  |  |
| CC(C)CCOC(=O)OC(C)OC(=O)C1=C(CSc2nnnn2CCN(C)C)CS[C@@H]2[C@H](NC(=O)Cc3csc(N)n3)C(=O)N12 (stereo partly drawn) [Example 2, 1-(3-Methylbutoxycarbonyloxy)ethyl 7β-[2-(2-aminothiazol-4-yl)acetamido]-3-[[[1-(2-dimethylaminoethyl)-1H-tetrazol-5-yl]thio]methyl]ceph-3-em-4-carboxylate] | 90.8 | 65.8 | 28.6 | 9.66 | 35.3 | 1.68 |  |  |  |  |
| CCC(CC)COC(=O)OC(C)OC(=O)C1=C(CSc2nnnn2CCN(C)C)CS[C@@H]2[C@H](NC(=O)Cc3csc(N)n3)C(=O)N12 (stereo partly drawn) [Example 4, 1-(2-Ethylbutoxycarbonyloxy)ethyl 7β-[2-(2-aminothiazol-4-yl)acetamido]-3-[[[1-(2-dimethylaminoethyl)-1H-tetrazol-5-yl]thio]methyl]ceph-3-em-4-carboxylate] | 83.6 | 43.9 | 39.5 | 8.73 | 32.4 | 0.22 |  |  |  |  |
| CCCC(C)COC(=O)OC(C)OC(=O)C1=C(CSc2nnnn2CCN(C)C)CS[C@@H]2[C@H](NC(=O)Cc3csc(N)n3)C(=O)N12 (stereo partly drawn) [Example 6, 1-(2-Methylpentyloxycarbonyloxy)ethyl 7β-[2-(2-aminothiazol-4-yl)acetamido]-3-[[[1-(2-dimethylaminoethyl)-1H-tetrazol-5-yl]thio]methyl]ceph-3-em-4-carboxylate] | 80.1 | 50.2 | 31.0 | 7.31 | 31.1 | 2.86 |  |  |  |  |
| CC(OC(=O)OCC(C)(C)C)OC(=O)C1=C(CSc2nnnn2CCN(C)C)CS[C@@H]2[C@H](NC(=O)Cc3csc(N)n3)C(=O)N12 (stereo partly drawn) [Example 7, 1-(2,2-Dimethylpropoxycarbonyloxy)ethyl 7β-[2-(2-aminothiazol-4-yl)acetamido]-3-[[[1-(2-dimethylaminoethyl)-1H-tetrazol-5-yl]thio]methyl]ceph-3-em-4-carboxylate] | 92.0 | 65.7 | 34.5 | 7.23 | 35.7 | 1.86 |  |  |  |  |
| CCCC(C)OC(=O)OC(C)OC(=O)C1=C(CSc2nnnn2CCN(C)C)CS[C@@H]2[C@H](NC(=O)Cc3csc(N)n3)C(=O)N12 (stereo partly drawn) [Example 8, 1-(1-Methylbutoxycarbonyloxy)ethyl 7β-[2-(2-aminothiazol-4-yl)acetamido]-3-[[[1-(2-dimethylaminoethyl)-1H-tetrazol-5-yl]thio]methyl]ceph-3-em-4-carboxylate] | 110.6 | 62.7 | 48.9 | 11.2 | 42.5 | 0.86 |  |  |  |  |
| CN(C)CCn1nnnc1SCC1=C(C(=O)O)N2C(=O)[C@@H](NC(=O)Cc3csc(N)n3)[C@H]2SC1 [compound [II], 7β-[2-(2-aminothiazol-4-yl)acetamido]-3-[[[1-(2-dimethylaminoethyl]-1H-tetrazol-5-yl]thio]methyl]ceph-3-em-4-carboxylic acid] |  |  |  |  |  |  | potent antibacterial activity | potent antibacterial activity | strong antibacterial activity | 100 |
